Test results taken from patent publication US5108997A, “Cephem compounds” (Fujisawa Pharmaceuticals Co., Ltd., priority 1986, dated 1992).
Converted amounts (≈) assume the structure as drawn.

System: P. vulgaris 49
Experiment: In vitro antibacterial activity, two-fold agar-plate dilution method (MIC)
Assay type: cell-based
Settings: Proteus vulgaris, HI-agar, 10^6 viable cells per ml, 37° C. for 20 hours, read-out: MIC (minimal inhibitory concentration)
Protocol: Now in order to show the utility of the object compounds [I], the test data on MIC (minimal inhibitory concentration) of representative compounds [I] of this invention are shown in the following.
In vitro antibacterial activity was determined by the two-fold agar-plate dilution method as described below.
One loopful of an overnight culture of each test strain in Trypticase-soy broth (10^6 viable cells per ml) was streaked on heart infusion agar (HI-agar) containing graded concentrations of representative test compound, and the minimal inhibitory concentration (MIC) was expressed in terms of μg/ml after incubation at 37° C. for 20 hours.

Cn1c(N)cc[n+]1CC1=C(C(=O)[O-])N2C(=O)C(NC(=O)C(=NOCC(=O)O)c3nsc(N)n3)C2SC1 (stereo not drawn) [Compound A, 7β-[2-(5-Amino-1,2,4-thiadiazol-3-yl)-2-carboxymethoxyiminoacetamido]-3-(3-amino-2-methyl-1-pyrazolio)methyl-3-cephem-4-carboxylate (syn isomer)]
MIC: 0.2 µg/mL (≈ 0.372 µM)

Cn1c(NC=O)cc[n+]1CC1=C(C(=O)[O-])N2C(=O)C(NC(=O)C(=NOCC(=O)O)c3nsc(N)n3)C2SC1 (stereo not drawn) [Compound B, 7β-[2-(5-Amino-1,2,4-thiadiazol-3-yl)-2-carboxymethoxyiminoacetamide]-3-(3-formamido-2-methyl-1-pyrazolio)methyl-3-cephem-4-carboxylate (syn isomer)]
MIC: 0.2 µg/mL (≈ 0.354 µM)

Cn1c(N)cc[n+]1CC1=C(C(=O)[O-])N2C(=O)C(NC(=O)C(=NOC(C)(C)C(=O)O)c3nsc(N)n3)C2SC1 (stereo not drawn) [Compound C, 7β-[2-(5-Amino-1,2,4-thiadiazol-3-yl)-2-(1-carboxyl-1-methylethoxyimino)acetamido]-3-(3-amino-2-methyl-1-pyrazolio)methyl-3-cephem-4-carboxylate(syn isomer)]
MIC: 0.1 µg/mL (≈ 0.177 µM)
